Reference: PMC7901646, “Pyrrolo[2′,3′:3,4]cyclohepta[1,2-d][1,2]oxazoles, a New Class of Antimitotic Agents Active against Multiple Malignant Cell Types” (Journal of Medicinal Chemistry, 2020)

Experiments:
Type in all cases: cell-based
[1] = system: COLO 205; assay: NCI-60 screen; details: Homo sapiens, Colon Cancer
Method: (§1) All the synthesized compounds 51–76 were tested at a 10^–5 M concentration for their antitumor activity on the full NCI-60 panel comprising cancer cell lines derived from nine human cancer cell types (leukemia, non-small-cell lung, colon, central nervous system, melanoma, ovarian, renal, prostate, and breast).[50]

[2] = system: HT29; assay: NCI-60 screen; details: Homo sapiens, HT-29; Colon Cancer
Method: as §1

[3] = system: MDA-MB-231/ATCC; assay: NCI-60 screen; details: Homo sapiens, Breast Cancer
Method: as §1

[4] = system: TK-10; assay: NCI-60 screen; details: Homo sapiens, Renal Cancer
Method: as §1

[5] = system: SR; assay: NCI-60 screen; details: Homo sapiens, Leukemia
Method: as §1

[6] = system: MCF7; assay: NCI-60 screen; details: Homo sapiens, Breast Cancer
Method: as §1

[7] = system: NCI-H226; assay: NCI-60 screen; details: Homo sapiens, Non-Small-Cell Lung Cancer
Method: as §1

[8] = system: MDA-MB-435; assay: NCI-60 screen; details: Homo sapiens, Melanoma
Method: as §1

[9] = system: DU-145; assay: NCI-60 screen; details: Homo sapiens, Prostate Cancer
Method: as §1

[10] = system: CAKI-1; assay: NCI-60 screen; details: Homo sapiens, Renal Cancer
Method: as §1

[11] = system: SK-MEL-5; assay: NCI-60 screen; details: Homo sapiens, Melanoma
Method: as §1

[12] = system: HCT-15; assay: NCI-60 screen; details: Homo sapiens, Colon Cancer
Method: as §1

[13] = system: HL-60(TB); assay: NCI-60 screen; details: Homo sapiens, Leukemia
Method: as §1

[14] = system: SW-620; assay: NCI-60 screen; details: Homo sapiens, Colon Cancer
Method: as §1

[15] = system: SNB-19; assay: NCI-60 screen; details: Homo sapiens, CNS Cancer
Method: as §1

[16] = system: UACC-62; assay: NCI-60 screen; details: Homo sapiens, Melanoma
Method: as §1

[17] = system: CCRF-CEM; assay: NCI-60 screen; details: Homo sapiens, Leukemia
Method: as §1

[18] = system: NCI-H460; assay: NCI-60 screen; details: Homo sapiens, Non-Small-Cell Lung Cancer
Method: as §1

[19] = system: SF-268; assay: NCI-60 screen; details: Homo sapiens, CNS Cancer
Method: as §1

[20] = system: SF-295; assay: NCI-60 screen; details: Homo sapiens, CNS Cancer
Method: as §1

[21] = system: PC-3; assay: NCI-60 screen; details: Homo sapiens, Prostate Cancer
Method: as §1

[22] = system: ACHN; assay: NCI-60 screen; details: Homo sapiens, Renal Cancer
Method: as §1

[23] = system: NCI/ADR-RES; assay: NCI-60 screen; details: Homo sapiens, Ovarian Cancer
Method: as §1

[24] = system: M14; assay: NCI-60 screen; details: Homo sapiens, Melanoma
Method: as §1

[25] = system: IGROV1; assay: NCI-60 screen; details: Homo sapiens, IGROV-1; Ovarian Cancer
Method: as §1

[26] = system: MOLT-4; assay: NCI-60 screen; details: Homo sapiens, Leukemia
Method: as §1

[27] = system: K-562; assay: NCI-60 screen; details: Homo sapiens, K562; Leukemia
Method: as §1

[28] = system: A498; assay: NCI-60 screen; details: Homo sapiens, Renal Cancer
Method: as §1

[29] = system: RPMI-8226; assay: NCI-60 screen; details: Homo sapiens, Leukemia
Method: as §1

[30] = system: SK-OV-3; assay: NCI-60 screen; details: Homo sapiens, Ovarian Cancer
Method: as §1

[31] = system: HCT-116; assay: NCI-60 screen; details: Homo sapiens, Colon Cancer
Method: as §1

[32] = system: VL51 ibrutinib-resistant; assay: MTT cell proliferation, lymphoma; details: Homo sapiens, 72 h, of untreated cells, read-out: Proliferating cells (%)
Method: All compounds were further tested at the concentration of 1 μM on four cell lines derived from distinct lymphoma histotypes, plus two with secondary resistance to the PI3Kδ inhibitor idelalisib[51] or to the BTK inhibitor ibrutinib.[52] […] For comparison, the same experiments were conducted using compound 3, but the response to it was minimal, and thus it was not considered further.
Established human cell lines derived from germinal center B-cell (GCB) (SU-DHL-10), activated B-cell (ABC) (HBL1) diffuse large B-cell lymphoma (DLBCL), mantle cell lymphoma (MCL) (MINO), splenic marginal zone lymphoma (SMZL) (parental VL51, VL51 idelalisib resistant clone, VL51 ibrutinib resistant clone) were cultured in culture RPMI-1640 media supplemented with fetal bovine serum (10%), penicillin–streptomycin–neomycin (∼5,000 units of penicillin, 5 mg of streptomycinm and 10 mg of neomycin/mL, Sigma), and L-glutamine (1%). Vincristine sulfate was purchased from Sigma-Aldrich. Cell line identities were confirmed by CellCheck test (IDEXX, BioResearch, Ludwigsburg, Germany). All compounds were dissolved in dimethyl sulfoxide to obtain a stock concentration of 10 mM.
The antiproliferative activity of all compounds was assessed by using the 3-(4.5-dimethylthiazolyl-2)-2,5-diphenyltetrazolium bromide (MTT) test. Cells were seeded in 96-well plates (nontissue culture treated) at a density of 1 × 10^5 cells/mL and treated with a single concentration of 1 μM for 72 h. […] In this case, cells were treated in triplicate with serially diluted compounds in the appropriate tissue culture medium at a range of 40–10 000 nM. Cells were incubated for 72 h at 37 °C, 5% CO2. Wells containing medium only were included on each plate and served as blanks for absorbance readings. MTT (Sigma, Buchs, Switzerland) was prepared as a 5 mg/mL stock solution in phosphate buffered saline (PBS) and filter-sterilized. MTT solution (22 μL) was added to each well, and tissue culture plates were incubated at 37 °C for 4 h. Cells were then lysed with 25% sodium dodecyl sulfate lysis buffer, and absorbance was read at 570 nm using a Beckman Coulter-AD340 plate reader.

[33] = system: LOX IMVI; assay: NCI-60 screen; details: Homo sapiens, Melanoma
Text: (§2) on the full NCI-60 panel comprising cancer cell lines derived from nine human cancer cell types (leukemia, non-small-cell lung, colon, central nervous system, melanoma, ovarian, renal, prostate, and breast).[50]

[34] = system: NCI-H522; assay: NCI-60 screen; details: Homo sapiens, Non-Small-Cell Lung Cancer
Text: as §2

[35] = system: OVCAR-3; assay: NCI-60 screen; details: Homo sapiens, Ovarian Cancer
Text: as §2

[36] = system: KM12; assay: NCI-60 screen; details: Homo sapiens, Colon Cancer
Text: as §2

| SMILES | GI50 [1] [nM] | GI50 [2] [nM] | GI50 [3] [nM] | GI50 [4] [nM] | GI50 [5] [nM] | GI50 [6] [nM] | GI50 [7] [nM] | GI50 [8] [nM] | GI50 [9] [nM] | GI50 [10] [nM] | GI50 [11] [nM] | GI50 [12] [nM] | GI50 [13] [nM] | GI50 [14] [nM] | GI50 [15] [nM] | GI50 [16] [nM] | GI50 [17] [nM] | GI50 [18] [nM] | GI50 [19] [nM] | GI50 [20] [nM] | also measured |
| --- | --- | --- | --- | --- | --- | --- | --- | --- | --- | --- | --- | --- | --- | --- | --- | --- | --- | --- | --- | --- | --- |
| CCOC(=O)c1cc2c(n1Cc1ccccc1OC)-c1oncc1CCC2 [Compound 62, Ethyl 9-(2-Methoxybenzyl)-4,5,6,9-tetrahydropyrrolo[2′,3′:3,4]cyclohepta[1,2-d][1,2]oxazole-8-carboxylate] | 870 | 910 | 9120 | 67800 | 430 | 710 | > 100000 | 350 | 5270 | 3510 | 2610 | 2240 | 3040 | 2020 | 64700 | 3370 | 2870 | 3880 | 46200 | 1380 | GI50 [21]: 2480 nM; GI50 [22]: 16600 nM; GI50 [23]: 1360 nM; GI50 [24]: 3670 nM; GI50 [25]: 1990 nM; GI50 [26]: 5680 nM; GI50 [27]: 1590 nM; GI50 [28]: 3460 nM; GI50 [29]: 4110 nM; GI50 [30]: 2700 nM; GI50 [31]: 3790 nM; activity at 1 µM [32]: 80.3%; GI50 [33]: 7640 nM; GI50 [34]: 350 nM; GI50 [35]: 870 nM; GI50 [36]: 2100 nM |
| CCOC(=O)c1cc2c(n1Cc1cccc(OC)c1)-c1oncc1CCC2 [Compound 63, Ethyl 9-(3-Methoxybenzyl)-4,5,6,9-tetrahydropyrrolo[2′,3′:3,4]cyclohepta[1,2-d][1,2]oxazole-8-carboxylate] | 580 | 360 | 1840 | 11200 | 280 | 370 | 21000 | 150 | 2180 | 2310 | 750 | 450 | 530 | 480 | 8230 | 510 | 2170 | 3530 | 6710 | 620 | GI50 [21]: 2350 nM; GI50 [22]: 3400 nM; GI50 [23]: 430 nM; GI50 [24]: 540 nM; GI50 [25]: 1160 nM; GI50 [26]: 2300 nM; GI50 [27]: 390 nM; GI50 [28]: 440 nM; GI50 [29]: 1890 nM; GI50 [30]: 2830 nM; GI50 [31]: 470 nM; activity at 1 µM [32]: 64.9%; GI50 [33]: 1750 nM; GI50 [34]: 230 nM; GI50 [35]: 300 nM; GI50 [36]: 460 nM |
| CCOC(=O)c1cc2c(n1Cc1cc(OC)cc(OC)c1)-c1oncc1CCC2 [Compound 66, Ethyl 9-(3,5-Dimethoxybenzyl)-4,5,6,9-tetrahydropyrrolo[2′,3′:3,4]cyclohepta[1,2-d][1,2]oxazole-8-carboxylate] | 30 | 30 | 240 | > 100000 | 30 | 30 | 7980 | 10 | 40 | 50 | 40 | 40 | 30 | 40 | 150 | 70 | 50 | 40 | 50 | 30 | GI50 [21]: 40 nM; GI50 [22]: 60 nM; GI50 [23]: 30 nM; GI50 [24]: 50 nM; GI50 [25]: 60 nM; GI50 [26]: 260 nM; GI50 [27]: 40 nM; GI50 [28]: 20 nM; GI50 [29]: 50 nM; GI50 [30]: 50 nM; GI50 [31]: 40 nM; activity at 1 µM [32]: 40.5%; GI50 [33]: 50 nM; GI50 [34]: 20 nM; GI50 [35]: 20 nM; GI50 [36]: 30 nM |
| CCOC(=O)c1cc2c(n1Cc1cc(OC)c(OC)c(OC)c1)-c1oncc1CCC2 [Compound 67, Ethyl 9-(3,4,5-Trimethoxybenzyl)-4,5,6,9-tetrahydropyrrolo[2′,3′:3,4]cyclohepta[1,2-d][1,2]oxazole-8-carboxylate] | 40 | 70 | 480 | 64900 | 40 | 40 | 1210 | 20 | 280 | 70 | 170 | 160 | 190 | 140 | 560 | 50 | 300 | 230 | 520 | 440 | GI50 [21]: 170 nM; GI50 [22]: 290 nM; GI50 [23]: 60 nM; GI50 [24]: 150 nM; GI50 [25]: 60 nM; GI50 [26]: 390 nM; GI50 [27]: 130 nM; GI50 [28]: 110 nM; GI50 [29]: 380 nM; GI50 [30]: 130 nM; GI50 [31]: 190 nM; activity at 1 µM [32]: 40.4%; GI50 [33]: 410 nM; GI50 [34]: 10 nM; GI50 [35]: 30 nM; GI50 [36]: 50 nM |
| CCOC(=O)c1c(Cl)c2c(n1Cc1ccccc1)-c1oncc1CCC2 [Compound 70, Ethyl 7-Chloro-9-benzyl-4,5,6,9-tetrahydropyrrolo[2′,3′:3,4]cyclohepta[1,2-d][1,2]oxazole-8-carboxylate] | 3530 | 2950 | 3510 | > 100000 | 1800 | 3210 | > 100000 | 1400 | > 100000 | 3510 | 3530 | 3390 | 3320 | 3810 | > 100000 | 4010 | 2210 | 3620 | > 100000 | > 100000 | GI50 [21]: 3160 nM; GI50 [22]: 5890 nM; GI50 [23]: 2830 nM; GI50 [24]: 3780 nM; GI50 [25]: 4390 nM; GI50 [26]: 3580 nM; GI50 [27]: 3680 nM; GI50 [28]: 4380 nM; GI50 [29]: 3270 nM; GI50 [30]: > 100000 nM; GI50 [31]: 4020 nM; activity at 1 µM [32]: 104%; GI50 [33]: 5260 nM; GI50 [34]: 1290 nM; GI50 [35]: 3130 nM; GI50 [36]: 3700 nM |
